Laboratory results taken from PMC3348135, “Identification of New Agonists and Antagonists of the Insect Odorant Receptor Co-Receptor Subunit” (PLoS ONE, 2012).
Where two headings read alike, the source gives them in different places.

Key:
Onub\Orco + Onub\Or1 = test: Agonist activation of Onub\Orco + Onub\Or1 in Xenopus oocytes, two-electrode voltage clamp; format: cell-based, Ostrinia nubilalis; conditions: 100 µM compound; mean ± SEM, n=3-8
Cqui\Orco = test: Agonist activation of homomeric Cqui\Orco in Xenopus oocytes, two-electrode voltage clamp; format: cell-based, Culex quinquefasciatus; conditions: 100 µM compound; mean ± SEM, n=3-8
Dmel\Orco + Dmel\Or35a = target: T1, Dmel\Orco + Dmel\Or35a (Drosophila melanogaster, UniProt Q9VNB5); test: Inhibition of OLC12 activation of Dmel\Orco + Dmel\Or35a in Xenopus oocytes; format: cell-based
T1 construct: expressed in transfected cells; host or cells: Xenopus laevis oocytes (cRNA injection, pGEMHE)
T1 sequence (Q9VNB5 1-486): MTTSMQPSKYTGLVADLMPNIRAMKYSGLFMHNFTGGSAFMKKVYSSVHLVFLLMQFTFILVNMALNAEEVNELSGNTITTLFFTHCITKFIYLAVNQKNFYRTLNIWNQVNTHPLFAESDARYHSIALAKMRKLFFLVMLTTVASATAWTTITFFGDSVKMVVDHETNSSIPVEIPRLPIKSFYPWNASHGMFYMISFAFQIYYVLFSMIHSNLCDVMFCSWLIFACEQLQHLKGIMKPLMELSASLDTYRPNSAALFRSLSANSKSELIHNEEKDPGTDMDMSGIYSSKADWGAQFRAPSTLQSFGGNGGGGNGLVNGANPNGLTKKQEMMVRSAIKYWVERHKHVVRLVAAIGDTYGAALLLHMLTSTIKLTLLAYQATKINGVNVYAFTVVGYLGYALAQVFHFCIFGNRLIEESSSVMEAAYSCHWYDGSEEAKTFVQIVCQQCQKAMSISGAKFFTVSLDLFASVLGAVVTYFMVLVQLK
T1 sequence (Q9V3Q2 1-409 partner): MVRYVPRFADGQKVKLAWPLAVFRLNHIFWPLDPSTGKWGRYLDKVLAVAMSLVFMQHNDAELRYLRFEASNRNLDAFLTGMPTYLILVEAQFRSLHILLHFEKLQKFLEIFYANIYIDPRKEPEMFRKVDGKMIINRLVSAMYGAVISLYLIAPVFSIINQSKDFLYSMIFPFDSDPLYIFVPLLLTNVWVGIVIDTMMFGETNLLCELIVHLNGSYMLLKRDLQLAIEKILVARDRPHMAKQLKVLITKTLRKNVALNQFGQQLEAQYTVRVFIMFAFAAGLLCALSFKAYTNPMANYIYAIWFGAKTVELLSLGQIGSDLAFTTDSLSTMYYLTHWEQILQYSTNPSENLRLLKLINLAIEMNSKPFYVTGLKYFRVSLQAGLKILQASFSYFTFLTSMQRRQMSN
Experimental: Oocytes were surgically removed from mature Xenopus laevis frogs. Follicle cells were removed by treatment with Collagenase B (Boehringer Mannhem) for 2 hours at room temperature. Capped cRNA encoding each DmOR subunit was generated using mMessage mMachine kits (Ambion). For heteromeric ORs, 25 ng of cRNA encoding each OR subunit was injected into Stage V-VI Xenopus oocytes. For expression of Orco alone, 50 ng of cRNA was injected. Oocytes were incubated at 18°C in Barth’s saline (in mM: 88 NaCl, 1 KCl, 2.4 NaHCO3, 0.3 CaNO3, 0.41 CaCl2, 0.82 MgSO4, 15 HEPES, pH 7.6, and 150 µg/ml ceftazidime) for 2–5 days prior to electrophysiological recording.
Odorant and Orco ligand induced currents were recorded under two-electrode voltage clamp in Xenopus laevis oocytes expressing ORs, using an automated parallel electrophysiology system (OpusExpress 6000A; Molecular Devices). Oocytes were perfused with ND96 (in mM: 96 NaCl, 2 KCl, 1 CaCl2, 1 MgCl2, 5 HEPES, pH 7.5). Odorant stock solutions (0.5 or 1 M) and Orco ligand stock solutions (100 mM) were prepared in DMSO and diluted in ND96. Unless otherwise noted, applications were for 60 sec at a flow rate of 1.0 ml/min, with extensive washing in ND96 (9 or 20 min at 4.6 ml/min) between applications. Micropipettes were filled with 3 M KCl and had resistances of 0.2−2.0 MΩ. The holding potential was −70 mV. Current responses, filtered (4-pole, Bessel, low pass) at 20 Hz (−3 db) and sampled at 100 Hz, were captured and stored using OpusXpress 1.1 software (Molecular Devices).
In inhibition assays, oocytes were exposed to 60 sec applications of OLC12 with 9 min washes between applications (Fig. 3 and 4) or 60 sec applications of odorant with 20 min washes between applications (Fig. 5). Oocytes were then exposed to a 90 sec application of antagonist candidate, immediately followed by a 60 sec co-application of antagonist candidate and OLC12 or odorant. Oocytes were then exposed to a final 60 sec application of OLC12 or odorant. The current response in the presence of antagonist candidate was compared to the preceding response(s) to OLC12 (or odorant) alone.
Initial analysis of electrophysiological data was done using Clampfit 9.1 software (Molecular Devices). Curve fitting and statistical analyses were done using Prism 5 (Graphpad). Concentration-response data were fit to the equation: I = Imax/(1+(EC50/X)^n) where I represents the current response at a given concentration of odorant, X; Imax is the maximal response; EC50 is the concentration of agonist yielding a half maximal response; n is the apparent Hill coefficient. Concentration-inhibition data were fit to the equation: I = Imax/(1+(X/IC50)^n) where I represents the current response at a given concentration of inhibitor, X; Imax is the maximal response in the absence of inhibitor; IC50 is the concentration of inhibitor present that still allows a half maximal response from odorant; n is the apparent Hill coefficient. Statistical significance was assessed using a two-tailed unpaired t test, an F test, or a one-way analysis of variance followed by the Bonferroni’s post-test, as appropriate.

Agam\Orco + Agam\Or65 = target: T2, Agam\Orco + Agam\Or65 (Anopheles gambiae, UniProt Q7QCC7); test: Inhibition of odorant (eugenol) activation of Agam\Orco + Agam\Or65 in Xenopus oocytes; format: cell-based, A. gambiae; conditions: 100 nM eugenol; OLC compound 100 µM
T2 construct: expressed in transfected cells; host or cells: Xenopus laevis oocytes (cRNA injection; vectors pSP64T-Oligo and pT7TS)
T2 sequence (Q7QCC7 1-478): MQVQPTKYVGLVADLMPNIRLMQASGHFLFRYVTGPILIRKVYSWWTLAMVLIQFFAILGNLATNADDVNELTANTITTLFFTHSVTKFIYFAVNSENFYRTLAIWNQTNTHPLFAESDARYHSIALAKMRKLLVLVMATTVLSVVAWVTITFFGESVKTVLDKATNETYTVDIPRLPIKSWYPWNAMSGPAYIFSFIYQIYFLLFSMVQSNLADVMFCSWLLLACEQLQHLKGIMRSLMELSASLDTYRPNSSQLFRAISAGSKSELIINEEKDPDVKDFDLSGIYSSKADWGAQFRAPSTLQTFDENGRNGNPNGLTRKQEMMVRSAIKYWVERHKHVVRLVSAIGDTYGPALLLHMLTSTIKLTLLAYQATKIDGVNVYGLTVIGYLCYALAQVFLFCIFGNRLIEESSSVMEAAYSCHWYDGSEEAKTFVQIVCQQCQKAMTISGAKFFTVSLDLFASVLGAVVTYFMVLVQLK

[1] = activated by 10 µM OLC12 (EC25), read-out: IC50, Dmel\Orco + Dmel\Or35a (activated by 10 µM OLC12)

Compound: CCc1ccc(NC(=O)CSc2nnc(-c3ccccn3)n2CC)cc1 [OLC2]
- Response amplitude as percentage of response to 100 µM OLC3, Onub\Orco + Onub\Or1 (Onub\Orco + Onub\Or1): 9 ± 2%
- Response amplitude as percentage of response to 100 µM OLC3, Cqui\Orco (Cqui\Orco): 0%
- IC50 (Dmel\Orco + Dmel\Or35a; [1]): 24 ± 5 µM
- Inhibition of activation of Agam\Orco+Agam\Or65 by eugenol (Agam\Orco + Agam\Or65): inhibited

Compound: CCCCc1ccc(NC(=O)CSc2nnc(-c3ccccn3)n2CC)cc1 [OLC15]
- Response amplitude as percentage of response to 100 µM OLC3, Cqui\Orco (Cqui\Orco): 0%
- IC50 (Dmel\Orco + Dmel\Or35a; [1]): 15 ± 1 µM
- IC50 (Dmel\Orco + Dmel\Or35a; activated by 100 µM OLC12, read-out: IC50, Dmel\Orco + Dmel\Or35a activated by 100 µM OLC12): 67 ± 7 µM
- Inhibition of activation of Agam\Orco+Agam\Or65 by eugenol (Agam\Orco + Agam\Or65): inhibited
